# Reference: patent US9717728B2, “Pharmaceutical combination comprising a B-Raf inhibitor and a histone deacetylase inhibitor and their use in the treatment of proliferative diseases” (NOVARTIS AG, priority 2012, dated 2017)
# “Also recorded” adds a separate entry of the source.
# Assays:
# [1] = tested on: Mel-P3-Post; experiment: Cell cycle staining and sub-G1 analysis of dead cells (flow cytometry); format: cell-based, human; conditions: for CELL CYCLE AVG G1 / CELL CYCLE AVG G2/M / CELL CYCLE AVG S / sub-G1 %: Mel-P3-Post, 48 hours
# Text: (§1) Cell lines: Mel-PX-Pre and Mel-PX-post represent cell lines derived from patient-X pre- and post-treatment with vemurafenib.
# [2] = tested on: Mel-P3-Pre; experiment: as above; format: cell-based, human; conditions: for CELL CYCLE AVG G1 / CELL CYCLE AVG G2/M / CELL CYCLE AVG S / sub-G1 %: Mel-P3-Pre, 48 hours
# Text: as §1
# [3] = tested on: Melanocytes (NHEM); experiment: as above; format: cell-based; conditions: for CELL CYCLE AVG G1 / CELL CYCLE AVG G2/M / CELL CYCLE AVG S / sub-G1 %: Melanocytes (NHEM), 48 hours
# [4] = tested on: Mel-P3-Post; experiment: Annexin-V staining per quadrant (flow cytometry); format: cell-based, human; conditions: 48 hours
# Text: as §1
# [5] = tested on: Mel-P3-Pre; experiment: Annexin-V staining per quadrant (flow cytometry); format: cell-based, human; conditions: 48 hours
# Text: as §1
# [6] = tested on: Mel-P1-Post; experiment: Sub-G1 analysis of dead cells; format: cell-based, human; conditions: 48 hours
# Text: as §1
# [7] = tested on: Mel-P1-Pre; experiment: Sub-G1 analysis of dead cells; format: cell-based, human; conditions: 48 hours
# Text: as §1
# [8] = tested on: Mel-P4-Post; experiment: Sub-G1 analysis of dead cells; format: cell-based, human; conditions: 48 hours
# Text: as §1
# [9] = tested on: Mel-P4-Pre; experiment: Sub-G1 analysis of dead cells; format: cell-based, human; conditions: 48 hours
# Text: as §1
# [10] = tested on: Mel-P3-Post; experiment: JC1 staining for mitochondrial depolarisation; format: cell-based, human
# Text: as §1
# [11] = tested on: Mel-P3-Post; experiment: z-VAD-fmk-FITC staining for caspase positive cells; format: cell-based, human; conditions: 48 hours
# Text: as §1
# [12] = tested on: melanoma lines; experiment: Cell cycle arrest and apoptosis in matched pre and post melanoma cell lines; format: cell-based, human; conditions: B-Raf-mutant melanoma, listed as B-Raf inhibitor of Formula (I)
# Protocol: The B-Raf inhibitor of Formula (I) was tested on the matched pre and post cell lines established from patients before treatment and after progression on vemurafenib treatment. […] Combining panobinostat with the B-Raf inhibitor of Formula (I), caused a synergistic increase in apoptosis in melanoma lines. The increase in apoptosis was also observed in the “post” cell lines which had previously acquired resistance to the B-Raf inhibitor, vemurafenib.
structure (smiles),measurement,setting,value
COC(=O)N[C@@H](C)CNc1nccc(-c2cn(C(C)C)nc2-c2cc(Cl)cc(NS(C)(=O)=O)c2F)n1 [B-Raf],CELL CYCLE AVG G1,"[1]; B-Raf 0.1 uM, HDAI 0 nM",65
same,CELL CYCLE AVG G2/M,"[1]; B-Raf 0.1 uM, HDAI 0 nM",12
same,CELL CYCLE AVG S,"[1]; B-Raf 0.1 uM, HDAI 0 nM",23
same,sub-G1 %,"[1]; B-Raf 0.1 uM, HDAI 0 nM",2%
same,CELL CYCLE AVG G1,"[1]; B-Raf 1 uM, HDAI 0 nM",68
same,CELL CYCLE AVG G2/M,"[1]; B-Raf 1 uM, HDAI 0 nM",10
same,CELL CYCLE AVG S,"[1]; B-Raf 1 uM, HDAI 0 nM",22
same,sub-G1 %,"[1]; B-Raf 1 uM, HDAI 0 nM",2%
same,CELL CYCLE AVG G1,"[1]; B-Raf 10 uM, HDAI 0 nM",72
same,CELL CYCLE AVG G2/M,"[1]; B-Raf 10 uM, HDAI 0 nM",7
same,CELL CYCLE AVG S,"[1]; B-Raf 10 uM, HDAI 0 nM",21
same,sub-G1 %,"[1]; B-Raf 10 uM, HDAI 0 nM",4%
same,G1 arrest (in words),[1]; Mel-P3 “post” cell line,weaker G1 arrest
same,apoptosis (in words),[1]; Mel-P3 “post” cell line,no apoptosis
same,CELL CYCLE AVG G1,"[2]; B-Raf 0.1 uM, HDAI 0 nM",85
same,CELL CYCLE AVG G2/M,"[2]; B-Raf 0.1 uM, HDAI 0 nM",6
same,CELL CYCLE AVG S,"[2]; B-Raf 0.1 uM, HDAI 0 nM",10
same,sub-G1 %,"[2]; B-Raf 0.1 uM, HDAI 0 nM",10%
same,CELL CYCLE AVG G1,"[2]; B-Raf 1 uM, HDAI 0 nM",90
same,CELL CYCLE AVG G2/M,"[2]; B-Raf 1 uM, HDAI 0 nM",6
same,CELL CYCLE AVG S,"[2]; B-Raf 1 uM, HDAI 0 nM",5
same,sub-G1 %,"[2]; B-Raf 1 uM, HDAI 0 nM",12%
same,CELL CYCLE AVG G1,"[2]; B-Raf 10 uM, HDAI 0 nM",92
same,CELL CYCLE AVG G2/M,"[2]; B-Raf 10 uM, HDAI 0 nM",4
same,CELL CYCLE AVG S,"[2]; B-Raf 10 uM, HDAI 0 nM",4
same,sub-G1 %,"[2]; B-Raf 10 uM, HDAI 0 nM",20%
same,G1 arrest (in words),[2]; Mel-P3 “pre” cell line,potent G1 arrest
same,apoptosis (in words),[2]; Mel-P3 “pre” cell line,low level apoptosis
same,cell death of melanocytes (in words),[3],did not die
same,CELL CYCLE AVG G1,"[3]; B-Raf 10 uM, HDAI 0 nM",98
same,CELL CYCLE AVG G2/M,"[3]; B-Raf 10 uM, HDAI 0 nM",1
same,CELL CYCLE AVG S,"[3]; B-Raf 10 uM, HDAI 0 nM",1
same,sub-G1 %,"[3]; B-Raf 10 uM, HDAI 0 nM",3%
same,Annexin Staining per quadrant. Lower Left* (“healthy” cells),"[4]; B-Raf 0.1 uM, HDAI 0 nM",91
same,Annexin Staining per quadrant. Lower Right,"[4]; B-Raf 0.1 uM, HDAI 0 nM",5
same,Annexin Staining per quadrant. Upper Left,"[4]; B-Raf 0.1 uM, HDAI 0 nM",0
same,Annexin Staining per quadrant. Upper Right,"[4]; B-Raf 0.1 uM, HDAI 0 nM",4
same,Annexin Staining per quadrant. Lower Left* (“healthy” cells),"[4]; B-Raf 1 uM, HDAI 0 nM",91
same,Annexin Staining per quadrant. Lower Right,"[4]; B-Raf 1 uM, HDAI 0 nM",5
same,Annexin Staining per quadrant. Upper Left,"[4]; B-Raf 1 uM, HDAI 0 nM",0
same,Annexin Staining per quadrant. Upper Right,"[4]; B-Raf 1 uM, HDAI 0 nM",4
same,Annexin Staining per quadrant. Lower Left* (“healthy” cells),"[4]; B-Raf 10 uM, HDAI 0 nM",89
same,Annexin Staining per quadrant. Lower Right,"[4]; B-Raf 10 uM, HDAI 0 nM",5
same,Annexin Staining per quadrant. Upper Left,"[4]; B-Raf 10 uM, HDAI 0 nM",0
same,Annexin Staining per quadrant. Upper Right,"[4]; B-Raf 10 uM, HDAI 0 nM",6
same,Annexin Staining per quadrant. Lower Left* (“healthy” cells),"[5]; B-Raf 0.1 uM, HDAI 0 nM",88
same,Annexin Staining per quadrant. Lower Right,"[5]; B-Raf 0.1 uM, HDAI 0 nM",7
same,Annexin Staining per quadrant. Upper Left,"[5]; B-Raf 0.1 uM, HDAI 0 nM",0
same,Annexin Staining per quadrant. Upper Right,"[5]; B-Raf 0.1 uM, HDAI 0 nM",4
same,Annexin Staining per quadrant. Lower Left* (“healthy” cells),"[5]; B-Raf 1 uM, HDAI 0 nM",85
same,Annexin Staining per quadrant. Lower Right,"[5]; B-Raf 1 uM, HDAI 0 nM",8
same,Annexin Staining per quadrant. Upper Left,"[5]; B-Raf 1 uM, HDAI 0 nM",0
same,Annexin Staining per quadrant. Upper Right,"[5]; B-Raf 1 uM, HDAI 0 nM",6
same,Annexin Staining per quadrant. Lower Left* (“healthy” cells),"[5]; B-Raf 10 uM, HDAI 0 nM",73
same,Annexin Staining per quadrant. Lower Right,"[5]; B-Raf 10 uM, HDAI 0 nM",13
same,Annexin Staining per quadrant. Upper Left,"[5]; B-Raf 10 uM, HDAI 0 nM",1
same,Annexin Staining per quadrant. Upper Right,"[5]; B-Raf 10 uM, HDAI 0 nM",13
same,sub-G1 %,"[6]; B-Raf 10 uM, HDAI 0 nM",10%
same,sub-G1 %,"[7]; B-Raf 10 uM, HDAI 0 nM",10%
same,sub-G1 %,"[8]; B-Raf 10 uM, HDAI 0 nM",54%
same,sub-G1 %,"[9]; B-Raf 10 uM, HDAI 0 nM",58%
same,Depolarised mitochondria,"[10]; B-Raf 5 uM, HDAI 0, 48 hours",88
same,z-VAD-fmk positive,"[11]; B-Raf 5 uM, HDAI 0 nM",14
same,cell cycle arrest and apoptosis (in words),[12],potent cell cycle inhibition and cell line-dependent apoptosis; also recorded: potent G1 arrest and cell-line dependent apoptosis
"Cc1[nH]c2ccccc2c1CCNCc1ccc(/C=C/C(=O)NO)cc1 [HDAI, reference compound]",CELL CYCLE AVG G1,"[1]; B-Raf 0 uM, HDAI 30 nM",69
same,CELL CYCLE AVG G2/M,"[1]; B-Raf 0 uM, HDAI 30 nM",22
same,CELL CYCLE AVG S,"[1]; B-Raf 0 uM, HDAI 30 nM",9
same,sub-G1 %,"[1]; B-Raf 0 uM, HDAI 30 nM",15%
same,CELL CYCLE AVG G1,"[2]; B-Raf 0 uM, HDAI 30 nM",70
same,CELL CYCLE AVG G2/M,"[2]; B-Raf 0 uM, HDAI 30 nM",21
same,CELL CYCLE AVG S,"[2]; B-Raf 0 uM, HDAI 30 nM",9
same,sub-G1 %,"[2]; B-Raf 0 uM, HDAI 30 nM",17%
same,cell death of melanocytes (in words),[3],did not die
same,CELL CYCLE AVG G1,"[3]; B-Raf 0 uM, HDAI 30 nM",88
same,CELL CYCLE AVG G2/M,"[3]; B-Raf 0 uM, HDAI 30 nM",7
same,CELL CYCLE AVG S,"[3]; B-Raf 0 uM, HDAI 30 nM",5
same,sub-G1 %,"[3]; B-Raf 0 uM, HDAI 30 nM",1%
same,Annexin Staining per quadrant. Lower Left* (“healthy” cells),"[4]; B-Raf 0 uM, HDAI 30 nM",83
same,Annexin Staining per quadrant. Lower Right,"[4]; B-Raf 0 uM, HDAI 30 nM",9
same,Annexin Staining per quadrant. Upper Left,"[4]; B-Raf 0 uM, HDAI 30 nM",0
same,Annexin Staining per quadrant. Upper Right,"[4]; B-Raf 0 uM, HDAI 30 nM",8
same,Annexin Staining per quadrant. Lower Left* (“healthy” cells),"[5]; B-Raf 0 uM, HDAI 30 nM",85
same,Annexin Staining per quadrant. Lower Right,"[5]; B-Raf 0 uM, HDAI 30 nM",8
same,Annexin Staining per quadrant. Upper Left,"[5]; B-Raf 0 uM, HDAI 30 nM",1
same,Annexin Staining per quadrant. Upper Right,"[5]; B-Raf 0 uM, HDAI 30 nM",6
same,sub-G1 %,"[6]; B-Raf 0 uM, HDAI 30 nM",14%
same,sub-G1 %,"[7]; B-Raf 0 uM, HDAI 30 nM",21%
same,sub-G1 %,"[8]; B-Raf 0 uM, HDAI 30 nM",24%
same,sub-G1 %,"[9]; B-Raf 0 uM, HDAI 30 nM",40%
same,Depolarised mitochondria,"[10]; B-Raf 0 uM, HDAI 30, 48 hours",86
same,z-VAD-fmk positive,"[11]; B-Raf 0 uM, HDAI 30 nM",23
